Values of other authors in patent publication US20140056935A1, “PEPTIDE WHICH CAN INDUCE ANTIBODY CAPABLE OF RECOGNIZING STEREOSTRUCTURE OF HIV” (priority 2011, published 2014).

Test system: HIV
Settings: MAGI assay, Non-Patent Document 17

enfuvirtide
activity relative to C34 native peptide monomer in terms of EC50 values: about 10 times
